The numbers were not newly measured in patent publication US20220184020A1, “Polyphenols as Modulators of Platelet Function” (Northeastern University, priority 2019, published 2022), which cites them from elsewhere.

For data set [1] the following is noted: cited from earlier work; for Max: maximum concentration detected in blood; for Max / Min: HMDB; for Min: minimum concentration detected in blood; for Concentration in Blood: retrieved from HMDB, Table 2.
The subject of a further data set is MCF7 cell line. The conditions noted are these: MCF7, 1 μM, 6 hours; cited from earlier work.
The conditions of data set [2]: in vivo models, recent studies; cited from earlier work.
For data set [3] the following is noted: in vitro and in vivo models; cited from earlier work.

With `O=C(O)c1cccc(O)c1O` [2,3-dihydroxybenzoic acid], in data set [1], the “Max” value is 0.129 µM and the “Min” value was 0.129 µM.
As for `O=c1c(O)c(-c2ccc(O)c(O)c2)oc2cc(O)cc(O)c12` [quercetin], the “Concentration in Blood” value in data set [1] is “[0.022-0.080 μM]”.
With `O=C(O)Cc1ccccc1` [phenylacetic acid], in data set [1], the “Max” value was 80.36 µM and the “Min” value is 10.28 µM.
For `COc1ccccc1O` [guaiacol], in data set [1], the “Max” value was 8.5 µM and the “Min” value was 8.5 µM.
Turning to `Oc1ccccc1` [phenol], in data set [1], the “Max” value was 6.38 µM and the “Min” value was 0.86 µM.
With `O=c1oc2c(O)c(O)cc3c(=O)oc4c(O)c(O)cc1c4c23` [ellagic acid], in data set [1], the “Max” value was 0.067 µM and the “Min” value was 0.067 µM.
With `O=c1c(-c2ccc(O)cc2)coc2cc(O)cc(O)c12` [genistein], in the data set on MCF7 cell line, the “number of Skin Diseases (SD) genes with perturbation score>2” value is reported as 10 and the “number of highly perturbed Cerebrovascular Disorders (CD) genes” value is recorded as “one”. Moreover, in data set [1], the “Max” value was 0.525 µM, the “Min” value is 0.00022 µM and the “Concentration in Blood” value was “[0.006-0.525 μM]”.
Take `O=c1oc2cc(O)ccc2c2oc3cc(O)ccc3c12` [coumestrol]: in data set [1], the “Max” value is 0.0123 µM and the “Min” value is 0.0123 µM.
For the compound `O=C(O)c1cc(O)c(O)c(O)c1` [gallic acid], the “effects on vascular health” value in data set [2] is on record as “protective effects on vascular health”.
Turning to `O=C(O)c1ccccc1O` [2-hydroxybenzoic acid], in data set [1], the “Max” value was 0.02 µM and the “Min” value was 0.02 µM.
As for `O=c1cc(-c2ccc(O)cc2)oc2cc(O)cc(O)c12` [apigenin], in data set [1], the “Max” value was 0.127 µM and the “Min” value is 0.0106 µM.
As for `COc1cc(-c2oc3cc(O)cc(O)c3c(=O)c2O)ccc1O` [isorhamnetin], in data set [1], the “Max” value is 0.157 µM and the “Min” value is 0.0388 µM.
Consider `Oc1cc(O)c2c(c1)O[C@H](c1ccc(O)c(O)c1)[C@H](O)C2` [(-)-epicatechin], for which, in data set [1], the “Max” value was 0.625 µM, the “Min” value is 0.625 µM and the “Concentration in Blood” value is 625 nM.
For the compound `O=C(O[C@@H]1Cc2c(O)cc(O)cc2O[C@@H]1c1cc(O)c(O)c(O)c1)c1cc(O)c(O)c(O)c1` [(-)-epigallocatechin 3-O-gallate], in data set [3], the glucose-lowering effects entry was “glucose-lowering effects”.
As for `O=c1c(O)c(-c2cc(O)c(O)c(O)c2)oc2cc(O)cc(O)c12` [myricetin], in data set [1], the “Max” value is 45 µM and the “Min” value is 45 µM.
In the case of `O=C1C[C@@H](c2ccc(O)cc2)Oc2cc(O)cc(O)c21` [naringenin], in data set [1], the “Max” value was 0.02 µM and the “Min” value was 0.00815 µM.
